The values that follow come from patent US20030139578A1, “Antibodies specifically binding PDE8A and PDE8B” (Incyte Genomics, Inc., priority 1996, published 2003).

The first test deals with T1, PDE8A(E) (Homo sapiens, UniProt O60658).
T1 construct: A 1.6 kb region of PDE8A(E) (the C-terminal 545 amino acids) was amplified and cloned into the baculovirus transfer vector pFASTBAC; made in house; host or cells: Sf9 insect cells (baculovirus, pFASTBAC)
T1 sequence (O60658 285-829 limits assumed): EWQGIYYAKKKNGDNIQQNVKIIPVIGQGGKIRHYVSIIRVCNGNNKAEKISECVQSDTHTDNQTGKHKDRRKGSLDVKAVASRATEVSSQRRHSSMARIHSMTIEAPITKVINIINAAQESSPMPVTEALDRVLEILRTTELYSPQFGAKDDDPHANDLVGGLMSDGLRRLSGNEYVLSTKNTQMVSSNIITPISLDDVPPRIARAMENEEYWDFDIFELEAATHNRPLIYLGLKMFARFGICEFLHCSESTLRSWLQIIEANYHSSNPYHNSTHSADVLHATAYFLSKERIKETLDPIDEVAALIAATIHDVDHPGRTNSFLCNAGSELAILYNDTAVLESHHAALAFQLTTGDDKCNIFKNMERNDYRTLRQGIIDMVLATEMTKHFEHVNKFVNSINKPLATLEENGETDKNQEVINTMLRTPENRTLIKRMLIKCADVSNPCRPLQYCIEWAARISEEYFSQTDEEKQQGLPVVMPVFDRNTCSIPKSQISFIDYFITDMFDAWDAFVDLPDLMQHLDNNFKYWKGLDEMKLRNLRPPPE
The test is described as follows: PDE activity assay, conversion of 3H-cAMP to 3H-adenosine by recombinant PDE8A(E). It is filed as biochemical.
Conditions: not given
As to the method:
Recombinant virus stocks were prepared according to the manufacturer's protocol. Sf9 cells were cultured in Sf900 II Sfm serum free media (Invitrogen) at 27 C. For expression, 1×10^8 Sf9 cells were infected at a multiplicity of infection of 5 in a final volume of 50 mls. At three days post-infection, the cells were harvested, and enzyme-containing lysates were prepared as described below.
PDE8A(E) to be used for assay was prepared from transfected Sf9 cells. Cells were harvested by centrifugation, resuspended in homogenization buffer (20 mM Tris-HCl, 2 mM benzamidine, 1 mM EDTA, 0.25 M sucrose, 100 uM PMSF, pH 7.5) at 1×10^7 cells/ml, and disrupted with 3×10 second pulses using a Sonifier Processor (Emerson Branson, Korea). Cellular debris was removed by centrifugation at 14,000×g for 10 minutes. The supernatant was stored at −70° C.
PDE activity was assayed by measuring the conversion of ^3H-cAMP to ^3H-adenosine in the presence of PDE8A(E) and 5′ nucleotidase. […] The reaction was started by the addition of 25 ul of diluted enzyme supernatant. Reactions were run directly in mini Poly-Q scintillation vials (BeckmanCoulter, Fullerton Calif.). […] The reaction was stopped by the addition of 1 ml of Dowex AG1×8 (C1 form) resin (1:3 slurry). Three ml of scintillation fluid were added, the contents of the vials were mixed, and the resin in the vials was allowed to settle for 1 hr before counting. Soluble radioactivity associated with ^3H-adenosine was quantitated using a Beta scintillation counter. The amount of radioactivity recovered is proportional to the activity of PDE8 in the reaction. For inhibitor studies (FIG. 8), all reactions contained 1% DMSO, 50 nM cAMP, and the indicated inhibitor concentrations. The control vial contained all reagents minus the enzyme aliquot.
As a reminder, the IC50 is the concentration that inhibits the measured activity by half. On to `OCCN(CCO)c1nc(N2CCCCC2)c2nc(N(CCO)CCO)nc(N3CCCCC3)c2n1` [dipyridamole], for which the half-maximal inhibitory concentration (IC50) was determined as 9 µM.

Still in this test, the particulars now being: 1% DMSO, 50 nM cAMP; FIG. 8.
As to `COc1ccc(C2CNC(=O)C2)cc1OC1CCCC1` (stereo not drawn) [rolipram], the “inhibition of PDE8A(E) activity” value is recorded as “not inhibited”.

On to `CC(C)Cn1c(=O)n(C)c(=O)c2[nH]cnc21` [IBMX], for which the “inhibition of PDE8A(E) activity” value is given as “not inhibited”.

`CCOC(=O)C1=C[C@]2(CC)CCCN3CCc4c(n1c1ccccc41)[C@@H]32` [vinpocetine]: the “inhibition of PDE8A(E) activity” value is recorded as “not inhibited”.

As for `CC(=O)Nc1ccc(-c2c[nH]c(=O)cn2)cc1` [SKF94120], the “inhibition of PDE8A(E) activity” value was “not inhibited”.

On to `CCCOc1ccccc1-c1nc2nn[nH]c2c(=O)[nH]1` [zaprinast], for which the “inhibition of PDE8A(E) activity” value was “not inhibited”.
